Data on 3 compounds can be found in patent US5192747A, “Anticoagulant peptides” (Merrell Dow Pharmaceuticals Inc., priority 1991, dated 1993).

The structures appear in SMILES notation. pIC50: −log10 of the molar value. Starred links: 1 amine or outer side, 2 acyl side, 3 side chain; linkers in the order of their positions; H or OH if unused. Non-standard residues stand in square brackets, D forms with d. Residues, ends and D or L forms follow the SMILES beside them. Cha = N[C@@H](CC1CCCCC1)C(=O)O; Suc = O=C(CCC(=O)[*:2])[*:1]

This experiment addresses Bovine thrombin (Bos taurus, UniProt P00735). The experiment is described as follows: thrombin induced fibrin clot inhibition assay. Format: biochemical.
Method: Samples were tested in a thrombin induced fibrin clot inhibition assay. All the solutions of the assay were made with an assay buffer containing 0.12M sodium chloride, 0.01M sodium phosphate, 0.01% sodium azide and 0.1% bovine serum albumin, pH 7.4. […] This solution of thrombin (50 ul; 0.2 pmol) was added to the wells of a microtiter plate containing 50 ul of a solution of the synthetic peptide being tested. […] The turbidity of the solution was monitored by the autoreader at 5 min intervals. […] This is equivalent to a twofold increase in fibrin clot formation time. For the assays using human thrombin,, it and bovine thrombin were titrated to concentrations which gave the fibrin clot at the same rate over a 30 min period.
Regarding `CC[C@H](C)[C@H](NC(=O)[C@@H]1CCCN1C(=O)[C@H](CCC(=O)O)NC(=O)[C@H](Cc1ccc(O)cc1)NC(=O)CCC(=O)O)C(=O)N1CCC[C@H]1C(=O)N[C@@H](CCC(=O)O)C(=O)N[C@@H](CCC(=O)O)C(=O)N[C@@H](CC1CCCCC1)C(=O)N[C@@H](CCC(N)=O)C(N)=O` [compound 5, Suc--Tyr--Glu--Pro--Ile-- Pro--Glu--Glu--Cha--Gln--NH2] (Suc-YEPIPEE[Cha]Q-NH2), the pIC50 was more than 4.60. `CC[C@H](C)[C@H](NC(=O)[C@@H]1CCCN1C(=O)[C@H](CCC(=O)O)NC(=O)[C@H](Cc1ccc(O)cc1)NC(=O)CCC(=O)O)C(=O)N1CCC[C@H]1C(=O)N[C@@H](CCC(=O)O)C(=O)N[C@@H](CCC(=O)O)C(=O)N[C@@H](CC1CCCCC1)C(=O)N[C@H](CCC(=O)O)C(=O)O` [compound 15, Suc--Tyr--Glu--Pro--Ile--Pro--Glu--Glu--Cha--D-Glu--OH]: the pIC50 is more than 4.60. Compound `CC[C@H](C)[C@H](NC(=O)[C@@H]1CCCN1C(=O)[C@H](CCC(=O)O)NC(=O)[C@H](Cc1ccc(O)cc1)NC(=O)CCC(=O)O)C(=O)N1CCC[C@H]1C(=O)N[C@@H](CCC(=O)O)C(=O)N[C@@H](CCC(=O)O)C(=O)N[C@@H](C)C(=O)N[C@@H](CC1CCCCC1)C(=O)O` [compound 18, Suc--Tyr--Glu--Pro--Ile--Pro--Glu--Glu--Ala--Cha--OH] showed a pIC50 of more than 4.60.

The pIC50 is the IC50 on a negative log10 scale, so that one unit is a factor of ten. A low value points to a high IC50.
